Tested on: A375 multi-cell spheroids with HUVEC/MSC, viability
Experiment: Anticancer human tumor A375 cell line growth inhibition [GQUAD];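 further: spheroids exposed to compounds for seven days before readout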
Conditions: for IC50: curve of first compound; for viability, T/C: stronger effect = lower value; active means viability on the fitted dose curve at most 10% of control; inactive means the rest
Source text: DNA G-quadruplex Stabilizer Agents in Combinations in Complex Spheroids
A high-throughput screen of multi-cell type tumor spheroids was designed to identify active combinations of DNA G-quadruplex stabilizer agents and targeted small molecules. Complex spheroids include a stromal component modeled by human endothelial cells (HUVEC) and fibroblasts modeled by human mesenchymal stem cells (MSCs). The concentration ranges selected for each drug and investigational agent were based upon clinically achievable concentrations if the clinical Cmax of the agent was known.
Compounds. The drugs and investigational agents: pidnarulex (CX-5461; NSC782164), APTO-253 (NSC789042), BRACO-19 (NSC847499), peposertib (NSC802822), ceralasertib (NSC780249), elimusertib (NSC800525), camonsertib (NSC841442), AZD-1390 (NSC803789), olaparib (NSC753686), talazoparib (NSC767125), ART-558 (NSC835418), sotorasib (NSC818433), MRTX-1133 (NSC836407), SN-38 (NSC673596), topotecan (NSC609699), etoposide (NSC141540), doxorubicin (NSC123127), gemcitabine (NSC613327), 5-fluorouracil (NSC19893), paclitaxel (NSC125973), vemurafenib (NSC761431), panobinostat (NSC761190), R-306465 (JNJ-16241199; NSC773264), adavosertib (NSC754352), TP-3654 (NSC805149), carboplatin (NSC241240), KSQ-4279 (NSC840948), and staurosporine (NSC755774) were obtained from the National Cancer Institute (NCI) Developmental Therapeutics Program Chemical Repository (34). The FDA-approved anticancer drug set is available from the NCI Developmental Therapeutics Program. […] The stock solutions were prepared in dimethyl sulfoxide (DMSO, Sigma-Aldrich, St. Louis, MO, cat. D2650) at 800-fold the tested concentration and stored at -70 degrees C prior to their use. All drugs and investigational agents were tested over a range starting from a high concentration at or near the clinical Cmax and decreasing in half-log increments. If the clinical Cmax for an agent had not been determined, the highest concentration tested was 10 microM.
2.3 Cell Culture. All cells were maintained in an incubator at 37 degrees C and 5% CO2 with 95% humidity. The PDC lines were cultured according to standard operating procedures established by the NCI PDMR. All PDCs were thawed and cultured in Matrigel-coated flasks prepared with a working solution of 1X Ham's F-12 nutrient mix, without supplementation (Invitrogen, cat. 11765054), 100 U/mL penicillin-streptomycin (Invitrogen, cat. 15140122), and 2.5% Matrigel (Corning Inc., cat. 354248) for the first three passages. The 857933-349-R-J2-PDC line was cultured in 6C/Colon 1B media, which includes advanced DMEM/F-12 (Thermo Fisher Scientific, cat. 12634028), 10 mM HEPES (Thermo Fisher Scientific, cat. 15630080), 1X GlutaMAX supplement (Thermo Fisher Scientific, cat. 35050061), 0.1 mg/mL primocin (InvivoGen, cat. ant-pm-2), 10% defined fetal bovine serum, heat inactivated (HyClone Laboratories Inc., cat. SH30070.03HI), 50% L-WRN conditioned media (ATCC, cat. CRL-3276), 1.25 mM N-Acetyl-L-cysteine (Sigma-Aldrich, cat. A9165), 10 mM nicotinamide (Sigma-Aldrich, cat. N0636), 1X B-27 supplement (Thermo Fisher Scientific, cat. 17504044), 1X N-2 supplement (Thermo Fisher Scientific, cat. 17502048), 10 microM Y-27632 dihydrochloride (Tocris Bioscience, cat. 1254), and 50 ng/mL human EGF recombinant protein (Thermo Fisher Scientific, cat. PHG0311). The 485176-168-R4-J1-PDC line was cultured in Panc media, which includes all 6C/Colon 1B media components plus 100 ng/mL human FGF-10 (Thermo Fisher Scientific, cat. 100-26), 500 nM SB-431542 (Selleckchem, cat. S1067), and gastrin (Tocris, cat. 3006).
[…]

[1] = second compound 0.0316 µM, first compound 0.0316 µM
[2] = second compound 0.0316 µM, first compound 0.316 µM
[3] = second compound 0.1 µM, first compound 0.0316 µM
[4] = second compound 0.1 µM, first compound 0.316 µM
[5] = second compound 0.316 µM, first compound 0.0316 µM
[6] = second compound 0.316 µM, first compound 0.316 µM
[7] = second compound 1 µM, first compound 0.0316 µM
[8] = second compound 1 µM, first compound 0.316 µM
[9] = second compound 3.16 µM, first compound 0.0316 µM
[10] = second compound 3.16 µM, first compound 0.316 µM
[11] = second compound 10 µM, first compound 0.0316 µM
[12] = second compound 10 µM, first compound 0.316 µM

C=CCn1c(=O)c2cnc(Nc3ccc(N4CCN(C)CC4)cc3)nc2n1-c1cccc(C(C)(C)O)n1 + Cc1[nH]c2ccc(F)cc2c1-c1nc2c3cccnc3c3ncccc3c2[nH]1
968 nM: IC50 (second compound 0.316 µM)
72.2 nM: IC50 (second compound 3.16 µM)
1100 nM: IC50 (second compound 0.1 µM)
1040 nM: IC50 (second compound 0.0316 µM)
149 nM: IC50 (second compound 10 µM)
inactive: viability, T/C [1] 108% | viability, T/C (second compound 0.0316 µM, first compound 0.1 µM) 94.2% | viability, T/C [2] 93.6% | viability, T/C (second compound 0.0316 µM, first compound 1 µM) 51.6% | viability, T/C (second compound 0.0316 µM, first compound 3.16 µM) 11.5% | viability, T/C [3] 106% | viability, T/C (second compound 0.1 µM, first compound 0.1 µM) 94.2% | viability, T/C [4] 94.2% | viability, T/C (second compound 0.1 µM, first compound 1 µM) 52.7% | viability, T/C (second compound 0.1 µM, first compound 3.16 µM) 15.4% | viability, T/C [5] 104% | viability, T/C (second compound 0.316 µM, first compound 0.1 µM) 103% | viability, T/C [6] 93.3% | viability, T/C (second compound 0.316 µM, first compound 1 µM) 48.8% | viability, T/C (second compound 0.316 µM, first compound 3.16 µM) 12.4% | viability, T/C [7] 101% | viability, T/C (second compound 1 µM, first compound 0.1 µM) 104% | viability, T/C [8] 80% | viability, T/C (second compound 1 µM, first compound 1 µM) 36.8% | viability, T/C (second compound 1 µM, first compound 3.16 µM) 12.3% | viability, T/C [9] 59.1% | viability, T/C (second compound 3.16 µM, first compound 0.1 µM) 45.1% | viability, T/C [10] 33.3% | viability, T/C (second compound 3.16 µM, first compound 1 µM) 19.5% | viability, T/C [11] 77.5% | viability, T/C (second compound 10 µM, first compound 0.1 µM) 63.9% | viability, T/C [12] 23.9% | viability, T/C (second compound 10 µM, first compound 1 µM) 20.2% | viability, T/C (second compound 10 µM, first compound 3.16 µM) 8.19%
active: viability, T/C (second compound 0.0316 µM, first compound 10 µM) 4.8% | viability, T/C (second compound 0.1 µM, first compound 10 µM) 6.47% | viability, T/C (second compound 0.316 µM, first compound 10 µM) 6.56% | viability, T/C (second compound 1 µM, first compound 10 µM) 8.03% | viability, T/C (second compound 3.16 µM, first compound 3.16 µM) 7.29% | viability, T/C (second compound 3.16 µM, first compound 10 µM) 5.68% | viability, T/C (second compound 10 µM, first compound 10 µM) 5.93%
703 nM: IC50 (second compound 1 µM)

CCc1c2c(nc3ccc(O)cc13)-c1cc3c(c(=O)n1C2)COC(=O)[C@]3(O)CC + Cc1[nH]c2ccc(F)cc2c1-c1nc2c3cccnc3c3ncccc3c2[nH]1
inactive: viability, T/C (second compound 0.0316 µM, first compound 0.000999 µM) 46% | viability, T/C (second compound 0.0316 µM, first compound 0.00316 µM) 20% | viability, T/C (second compound 0.0316 µM, first compound 0.00999 µM) 16.8% | viability, T/C [1] 19.7% | viability, T/C (second compound 0.1 µM, first compound 0.000999 µM) 50.3% | viability, T/C (second compound 0.1 µM, first compound 0.00316 µM) 20.4% | viability, T/C (second compound 0.1 µM, first compound 0.00999 µM) 14.7% | viability, T/C (second compound 0.316 µM, first compound 0.000999 µM) 47.8% | viability, T/C (second compound 0.316 µM, first compound 0.00316 µM) 18.3% | viability, T/C (second compound 0.316 µM, first compound 0.00999 µM) 15.2% | viability, T/C (second compound 1 µM, first compound 0.000999 µM) 41.1% | viability, T/C (second compound 1 µM, first compound 0.00316 µM) 20.4% | viability, T/C (second compound 1 µM, first compound 0.00999 µM) 18.4% | viability, T/C [7] 16.4% | viability, T/C (second compound 3.16 µM, first compound 0.000999 µM) 32% | viability, T/C (second compound 3.16 µM, first compound 0.00316 µM) 20.9% | viability, T/C (second compound 3.16 µM, first compound 0.00999 µM) 17.6% | viability, T/C (second compound 10 µM, first compound 0.000999 µM) 39.4% | viability, T/C (second compound 10 µM, first compound 0.00316 µM) 17.6% | viability, T/C (second compound 10 µM, first compound 0.00999 µM) 17.1%
active: viability, T/C (second compound 0.0316 µM, first compound 0.0999 µM) 4.81% | viability, T/C [2] 0.52% | viability, T/C [3] 16.9% | viability, T/C (second compound 0.1 µM, first compound 0.0999 µM) 5.44% | viability, T/C [4] 0.54% | viability, T/C [5] 19.5% | viability, T/C (second compound 0.316 µM, first compound 0.0999 µM) 5.75% | viability, T/C [6] 0.54% | viability, T/C (second compound 1 µM, first compound 0.0999 µM) 5.26% | viability, T/C [8] 0.53% | viability, T/C [9] 11% | viability, T/C (second compound 3.16 µM, first compound 0.0999 µM) 0.47% | viability, T/C [10] 0.17% | viability, T/C [11] 14.1% | viability, T/C (second compound 10 µM, first compound 0.0999 µM) 1.7% | viability, T/C [12] 0.25%
< 0.999 nM: IC50 (second compound 0.0316 µM) | IC50 (second compound 0.1 µM) | IC50 (second compound 0.316 µM) | IC50 (second compound 1 µM) | IC50 (second compound 3.16 µM) | IC50 (second compound 10 µM)

— PubChem BioAssay AID2060485 (Molecular Pharmacology Branch, DTP, NCI, 2025)
